Measured values reported in US10947284B2, “Fusion molecules” (Pieris Pharmaceuticals GMBH, priority 2015, dated 2021).
Starred links: 1 amine or outer side, 2 acyl side, 3 side chain; linkers in the order of their positions; H or OH if unused. Non-standard residues stand in square brackets, D forms with d. Residues, ends and D or L forms follow the SMILES beside them. *: point of attachment. X1 = O=C([C@@H]1CCNc2c(N[*:1])cc3cc(O)c(O)cc3[n+]21)[*:2]; dOrn(N5-OH,N5-CHO) = N[C@H](CCCN(O)C=O)C(=O)O; d(aThr) = C[C@@H](O)[C@@H](N)C(=O)O; Suc = O=C(CCC(=O)[*:2])[*:1]; X2 = O=C1[C@@H](N*)CCCN1[O-]; Orn = NCCC[C@H](N)C(=O)O

Tests used:
[1] = molecular target: hNGAL (human lipocalin 2), wild type, SEQ ID NO: 1 (Homo sapiens, UniProt P80188); conditions: cited from earlier work
[2] = molecular target: T1, hNGAL (human lipocalin 2, parent wild type SEQ ID NO: 1) mutein SEQ ID NO: 45 (Homo sapiens, UniProt P80188, A60L/C107S/D97K/I61A/K154W/K93H/L123Q/L56E/L90R/N116L/Q48H/Q69M/R101V/S147V/S88E/W99D/Y120D/Y126E/Y72M); test: Solution binding ELISA
T1 construct: made in house; host or cells: E. coli
Method: (§1) The concentration of free (non ligand-bound) muteins was determined via a quantitative ELISA setup.
(§2) In detail, a 384-well plate suitable for fluorescence measurements (Greiner FLUOTRAC™ 600, black flat bottom, high-binding) was coated with 20 μl of Neutravidin at a concentration of 5 μg/ml in PBS overnight at 4 C. After washing, the Neutravidin-coated wells were blocked with 100 μl blocking buffer containing 0.1% Tween 20 and 2% BSA (PBS-T/BSA) for 1 h at room temperature.
(§3) The residual supernatants were discarded and 20 μl HRP-labeled anti-hNGAL antibody was added at a predetermined optimal concentration in PBS-T/BSA and incubated for 1 h at RT. […] After washing, 20 μl fluorogenic HRP substrate (QuantaBlu, Thermo) was added to each well, and the reaction was allowed to proceed for 15 to 60 minutes. The fluorescence intensity of every well on the plate was read using a fluorescence microplate reader (Tecan or Molecular Devices). […] Curve fitting was performed using GraphPad Prism 4 software.

[3] = molecular target: T2, Fusion molecule SEQ ID NO: 134 (hNGAL muteins SEQ ID NOs: 36, 16, 53 and 62) (Homo sapiens, UniProt P80188, A60T/C107S/D97H, form not given/K145I/K154W/K93R/L123T/L56V/L90R/N85D/Q69G/R101D/R92I/S147R/S88D/T74A/W99Y/Y126Q/Y152I/Y72N); test: Surface plasmon resonance (Biacore T200); assay type: binding; conditions: for binding: SPR
T2 construct: made in house; host or cells: HEK293
T2 sequence (P80188 with tags, fused parts or gaps with the stated changes, form open): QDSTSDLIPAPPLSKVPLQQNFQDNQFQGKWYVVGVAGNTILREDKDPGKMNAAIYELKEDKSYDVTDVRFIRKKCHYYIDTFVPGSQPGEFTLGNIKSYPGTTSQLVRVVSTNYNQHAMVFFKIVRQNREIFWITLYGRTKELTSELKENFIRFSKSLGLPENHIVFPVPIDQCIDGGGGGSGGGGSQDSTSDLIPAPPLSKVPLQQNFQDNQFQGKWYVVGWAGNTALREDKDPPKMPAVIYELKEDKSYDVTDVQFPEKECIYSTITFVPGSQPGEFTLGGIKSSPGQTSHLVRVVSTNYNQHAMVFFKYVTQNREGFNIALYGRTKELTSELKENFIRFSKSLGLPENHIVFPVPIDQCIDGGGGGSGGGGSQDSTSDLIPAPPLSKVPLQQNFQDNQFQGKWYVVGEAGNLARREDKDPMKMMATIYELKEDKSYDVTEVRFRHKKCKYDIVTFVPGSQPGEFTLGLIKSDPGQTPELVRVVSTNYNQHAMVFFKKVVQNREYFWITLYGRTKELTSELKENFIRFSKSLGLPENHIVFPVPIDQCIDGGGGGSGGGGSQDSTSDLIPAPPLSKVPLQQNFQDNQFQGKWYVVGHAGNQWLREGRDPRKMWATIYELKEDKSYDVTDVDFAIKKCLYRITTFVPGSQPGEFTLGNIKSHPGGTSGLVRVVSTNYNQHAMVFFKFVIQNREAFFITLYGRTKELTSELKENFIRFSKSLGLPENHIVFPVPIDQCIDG

[4] = molecular target: T3, hNGAL (human lipocalin 2, parent wild type SEQ ID NO: 1) mutein SEQ ID NO: 48 (Homo sapiens, UniProt P80188, A60L/C107S/D67N/D97K/I61A/K154W/K93H/L123Q/L56E/L90R/N116L/Q48H/Q69M/R101V/S125P/S147V/S88E/T165P/W99D/Y120D/Y126E/Y72M); test: Solution binding ELISA
T3 construct: made in house; host or cells: E. coli
Method: as §1, §2, §3

[5] = molecular target: T4, Fusion molecule SEQ ID NO: 134 (hNGAL muteins SEQ ID NOs: 36, 16, 53 and 62) (Homo sapiens, UniProt P80188, A60T/C107S/D97H, form not given/K145I/K154W/K93R/L123T/L56V/L90R/N85D/Q69G/R101D/R92I/S147R/S88D/T74A/W99Y/Y126Q/Y152I/Y72N); test: Solution binding ELISA; conditions: binding to target in solution, tracer 0.1 nM, Table 11
T4 construct: made in house
T4 sequence (P80188 with tags, fused parts or gaps with the stated changes, form open): as above

[6] = molecular target: T5, hNGAL (human lipocalin 2, parent wild type SEQ ID NO: 1) mutein SEQ ID NO: 47 (Homo sapiens, UniProt P80188, A60L/C107S/D97K/I61A/K154W/K93H/L123Q/L56E/L62R/L90R/N116L/Q48H/Q69M/R101V/S125P/S147V/S88E/W99D/Y120D/Y126E/Y72M); test: Solution binding ELISA
T5 construct: made in house; host or cells: E. coli
Method: as §1, §2, §3

[7] = molecular target: T6, hNGAL (human lipocalin 2, parent wild type SEQ ID NO: 1) mutein SEQ ID NO: 44 (Homo sapiens, UniProt P80188, A60L/C107S/D97K/I61T/K154W/K93R/L123Q/L56E/L90R/N116V/Q48H/Q69M/R101V/S147V/S88E/W99D/Y120D/Y126E/Y72M); test: Solution binding ELISA
T6 construct: made in house; host or cells: E. coli
Method: as §1, §2, §3

[8] = molecular target: T7, hNGAL (human lipocalin 2, parent wild type SEQ ID NO: 1) mutein SEQ ID NO: 42 (Homo sapiens, UniProt P80188, A60L/C107S/D97Q/I61A/K154W/K93H/L123Q/L56E/L90R/N116L/Q48H/Q69K/R101A/S147V/S88E/W99D/Y120D/Y126E/Y152F/Y72M); test: Solution binding ELISA
T7 construct: made in house; host or cells: E. coli
Method: as §1, §2, §3

[9] = molecular target: T8, hNGAL (human lipocalin 2, parent wild type SEQ ID NO: 1) mutein SEQ ID NO: 53 (Homo sapiens, UniProt P80188, A60L/C107S/D97K/I61A/K154W/K93H/L123Q/L56E/L62R/L90R/N116L/N85D/Q69M/R101V/S125P/S147V/S88E/W99D/Y120D/Y126E/Y72M); test: Solution binding ELISA; conditions: Example 5
T8 construct: made in house; host or cells: E. coli
Method: as §1, §2, §3
The concentration of free (non ligand-bound) mutein or fusion molecule construct was determined via a quantitative ELISA setup.
In detail, a 384-well plate suitable for fluorescence measurements (Greiner FLUOTRAC™ 600, black flat bottom, high-binding) was coated with 20 μl of Neutravidin at a concentration of 5 μg/ml in PBS overnight at 4° C. After washing, the Neutravidin-coated wells were blocked with 100 μl blocking buffer containing 0.1% Tween 20 and 2% BSA (PBS-T/BSA) for 1 h at room temperature.
The residual supernatants were discarded and 20 μl HRP-labeled anti-hNGAL antibody was added at a predetermined optimal concentration in PBS-T/BSA and incubated for 1 h at RT. […] After washing, 20 μl fluorogenic HRP substrate (QuantaBlu, Thermo) was added to each well, and the reaction was allowed to proceed for 15 to 60 minutes. The fluorescence intensity of every well on the plate was read using a fluorescence microplate reader (Tecan or Molecular Devices). […] IC50 values were fitted by nonlinear regression with a single-sites binding model. Curve fitting was performed using GraphPad Prism 4 software.

[10] = molecular target: T9, hNGAL (human lipocalin 2, parent wild type SEQ ID NO: 1) mutein SEQ ID NO: 50 (Homo sapiens, UniProt P80188, A60L/C107S/D97K/I61A/K154W/K93H/L123Q/L56E/L62R/L90R/N116L/N85D/Q48H/Q69M/R101V/S125P/S147V/S88E/W99D/Y120D/Y126E/Y72M); test: Solution binding ELISA; conditions: Example 5
T9 construct: made in house; host or cells: E. coli
Method: as §1, §2, §3

[11] = molecular target: T10, hNGAL (human lipocalin 2, parent wild type SEQ ID NO: 1) mutein SEQ ID NO: 46 (deletion of G-N-I-K, positions 95-98) (Homo sapiens, UniProt P80188, A60L/C107S/D97Q/DEL115-118/I61A/K154W/K93Y/L123Q/L56E/L90R/Q48H/Q69K/R101V/S147V/S88E/W99D/Y120E/Y126E/Y152F/Y72M); test: Solution binding ELISA
T10 construct: made in house; host or cells: E. coli
Method: as §1, §2, §3

[12] = molecular target: T11, hNGAL (human lipocalin 2, parent wild type SEQ ID NO: 1) mutein SEQ ID NO: 39 (Homo sapiens, UniProt P80188, A60R/C107S/D97A/I61W/K145T/K154E/K93L/L123P/L56F/L90N/N116R/Q48H/Q69I/R101S/R92W/S147I/S88Q/W99S/Y120I/Y126E/Y152F); conditions: solution binding ELISA
T11 construct: made in house; host or cells: E. coli
Method: as §1, §2, §3

[13] = molecular target: T12, hNGAL (human lipocalin 2, parent wild type SEQ ID NO: 1) mutein SEQ ID NO: 43 (Homo sapiens, UniProt P80188, A60L/C107S/D97K/I61A/K154W/K93Q/L123Q/L56E/L90R/N116L/Q48H/Q69M/R101V/S147V/S88E/W99D/Y120D/Y126E/Y72M); test: Solution binding ELISA
T12 construct: made in house; host or cells: E. coli
Method: as §1, §2, §3

[14] = molecular target: lipocalin negative control SEQ ID NO: 64 (Homo sapiens, UniProt P80188, C107S/Q48H); test: Surface plasmon resonance (Biacore T200); assay type: binding
Method: (§4) In a Surface Plasmon Resonance (SPR) based assay a Biacore T200 instrument (GE Healthcare) was used to measure the binding affinity of muteins to pyoverdine I succinyl, -succinamide, -α-ketoglutaryl with complexed iron ion or to pyoverdine II succinyl, -succinamide, -α-ketoglutaryl with complexed iron ion or to pyoverdine III succinyl, -succinamide, -α-ketoglutaryl with complexed iron ion. Muteins selected for binding to pyoverdines and negative control (SEQ ID NO: 64) were biotinylated for 2 h at room temperature applying an appropriate excess of EZ-Link NHS-PEG4-Biotin (Thermo, Cat #21329) followed by separation of non-reacted Biotin using a Zebra Spin Desalting Plate (Thermo, Cat #21329) according to the manufactures instructions.
(§5) In the SPR affinity assay, biotinylated muteins and negative control were captured on a sensor chip CAP using the Biotin CAPture Kit (GE Healthcare): Sensor Chip CAP is pre-immobilized with an ssDNA oligo. Undiluted Biotin CAPture Reagent (streptavidin conjugated with the complementary ss-DNA oligo) was applied at a flow rate of 2 μl/min for 300 s. Subsequently, 1 μg/ml to 100 μg/mL of biotinylated muteins or negative control were applied for 300 s at a flow rate of 5 μl/min. The reference channel was loaded with Biotin CAPture Reagent only.
(§6) Applying a flow rate of 30 μl/min, a single cycle or multi cycle kinetics approach was used with a sample contact time of 120-180 s and a dissociation time of 900-2400 s. […] After ligand immobilization, for analysis using single cycle kinetics all 4-5 concentrations of Pvd were applied consecutively in ascending order before the dissociation was monitored. For analysis using multi cycle kinetics 4 dilutions of Pvd were applied, each followed a dissociation phase. All measurements were performed at 25° C. […] Data were evaluated with Biacore T200 Evaluation software (V 1.0). Double referencing was used. A 1:1 Binding model was used to fit the raw data.
(§7) Subsequently, 5 μg/mL of mutein or the negative control solution in 10 mM acetate pH 4.0 was applied at a flow rate of 10 μl/min until a high immobilization level of approximately 2000 RU was achieved. Residual activated groups were quenched with ethanolamine. The reference channels were treated with EDC/NHS following ethanolamine (blank immobilization).
In the SPR affinity assay, biotinylated muteins and negative control were captured on a sensor chip CAP using the Biotin CAPture Kit (GE Healthcare), wherein the Sensor Chip CAP is pre-immobilized with an ssDNA oligo. Undiluted Biotin CAPture Reagent (streptavidin conjugated with the complementary ss-DNA oligo) was applied at a flow rate of 2 μl/min for 300 s. Subsequently, 20 μg/ml to 100 μg/mL of biotinylated muteins or fusion molecule negative control were applied for 300 s at a flow rate of 5 μl/min. The reference channel was loaded with Biotin CAPture Reagent only. To determine the binding affinity, four dilutions of the respective Pvd were prepared in HBS-EP+ buffer (GE Healthcare) and applied to the chip surface. Applying a flow rate of 30 μl/min, a single cycle kinetics approach was used with a sample contact time of 180 s and a dissociation time of 1800-2400 s. […] After ligand immobilization, the four concentrations of Pvd were applied consecutively in ascending order before the dissociation was monitored. All measurements were performed at 25° C. […] Data were evaluated with Biacore T200 Evaluation software (V 1.0). Double referencing was preformed. A 1:1 binding model was used to fit the raw data.

[15] = molecular target: T13, hNGAL (human lipocalin 2, parent wild type SEQ ID NO: 1) mutein SEQ ID NO: 62 (Homo sapiens, UniProt P80188, A60Q/C107S/D65G/D97L/I61W/K145F/K154F/K66R/K93I/L123G/L56H/L90D/N85D/Q69R/R101T/R92A/S147I/S88D/W99R/Y120H/Y126G/Y152A/Y72W); test: Surface plasmon resonance (Biacore T200), CM5 chip; assay type: binding; conditions: SPR, high concentrations (≥1 μM)
T13 construct: made in house
Method: as §7
The binding assay was carried out with a contact time of 180 s, dissociation times of 1200-1800 s and applying a flow rate of 30 μl/min. Measurements were performed at 25° C. Regeneration of the immobilized mutein surface was achieved by three consecutive injections of 10 mM Gly-HCl pH 1.5 (120 s) followed by an extra wash with running buffer and a stabilization period. Data were evaluated with Biacore T200 Evaluation software (V 1.0). Double referencing was used. The 1:1 Binding model was used to fit the raw data.
Subsequently, 5 μg/mL of mutein or the negative control solution in 10 mM acetate pH 4.0 was applied at a flow rate of 10 μl/min until a high immobilization level of approximately 2000 RU was achieved. Residual activated groups were quenched with ethanolamine. The reference channels were treated with EDC/NHS following ethanolamine (blank immobilization). […] The binding assay was carried out with a contact time of 180 s, dissociation times of 1500-1800 s and applying a flow rate of 30 μl/min. Measurements were performed at 25° C. Regeneration of the immobilized mutein surface was achieved by three consecutive injections of 10 mM Gly-HCl pH 1.5 (120 s) followed by an extra wash with running buffer and a stabilization period. Data were evaluated with Biacore T200 Evaluation software (V 1.0). Double referencing was used. The 1:1 Binding model was used to fit the raw data.

[16] = molecular target: T8, hNGAL (human lipocalin 2, parent wild type SEQ ID NO: 1) mutein SEQ ID NO: 53; test: Surface plasmon resonance (Biacore T200); assay type: binding; conditions: SPR, 25° C., Table 2C
Method: as §4, §5, §6
In a surface plasmon resonance (SPR) based assay, a Biacore T200 instrument (GE Healthcare) was used to measure the binding affinity of individual muteins or fusion molecules to pyoverdine siderophores (to pyoverdine I succinyl, -succinamide, -α-ketoglutaryl with complexed iron ion or to pyoverdine II succinyl, -succinamide, -α-ketoglutaryl with complexed iron ion or to pyoverdine III succinyl, -succinamide, -α-ketoglutaryl with complexed iron ion). To this end, muteins selected for binding to pyoverdines (SEQ ID NOs: 16, 36, 53), a fusion molecule (SEQ ID NO: 134) and a negative control (SEQ ID NO: 64) were biotinylated for 2 h at room temperature applying an appropriate excess of EZ-Link NHS-PEG4-Biotin (Thermo, Cat #21329) followed by separation of non-reacted biotin using a Zebra Spin Desalting Plate (Thermo, Cat #21329) according to the manufacturer's instructions.
In the SPR affinity assay, biotinylated muteins and negative control were captured on a sensor chip CAP using the Biotin CAPture Kit (GE Healthcare), wherein the Sensor Chip CAP is pre-immobilized with an ssDNA oligo. Undiluted Biotin CAPture Reagent (streptavidin conjugated with the complementary ss-DNA oligo) was applied at a flow rate of 2 μl/min for 300 s. Subsequently, 20 μg/ml to 100 μg/mL of biotinylated muteins or fusion molecule negative control were applied for 300 s at a flow rate of 5 μl/min. The reference channel was loaded with Biotin CAPture Reagent only. To determine the binding affinity, four dilutions of the respective Pvd were prepared in HBS-EP+ buffer (GE Healthcare) and applied to the chip surface. Applying a flow rate of 30 μl/min, a single cycle kinetics approach was used with a sample contact time of 180 s and a dissociation time of 1800-2400 s. […] After ligand immobilization, the four concentrations of Pvd were applied consecutively in ascending order before the dissociation was monitored. All measurements were performed at 25° C. […] Data were evaluated with Biacore T200 Evaluation software (V 1.0). Double referencing was preformed.

T1 sequence (P80188 other isoform, or with tags, fused parts or gaps with the stated changes): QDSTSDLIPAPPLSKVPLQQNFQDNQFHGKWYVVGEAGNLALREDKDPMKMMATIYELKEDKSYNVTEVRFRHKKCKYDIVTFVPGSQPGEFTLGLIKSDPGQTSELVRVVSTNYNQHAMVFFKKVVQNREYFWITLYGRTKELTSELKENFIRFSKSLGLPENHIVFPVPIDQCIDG
T10 sequence (P80188 other isoform, or with tags, fused parts or gaps with the stated changes): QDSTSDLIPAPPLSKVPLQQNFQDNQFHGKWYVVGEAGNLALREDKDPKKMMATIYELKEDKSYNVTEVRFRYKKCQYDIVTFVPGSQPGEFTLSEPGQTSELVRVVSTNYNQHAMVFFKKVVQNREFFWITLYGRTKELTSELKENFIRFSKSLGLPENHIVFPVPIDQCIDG
T8 sequence (P80188 21-198 with the stated changes): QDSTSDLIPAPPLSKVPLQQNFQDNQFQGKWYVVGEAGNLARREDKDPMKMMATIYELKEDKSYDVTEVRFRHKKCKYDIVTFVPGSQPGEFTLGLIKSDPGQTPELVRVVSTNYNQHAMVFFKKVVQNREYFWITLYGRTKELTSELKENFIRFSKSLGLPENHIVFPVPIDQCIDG
T6 sequence (P80188 other isoform, or with tags, fused parts or gaps with the stated changes): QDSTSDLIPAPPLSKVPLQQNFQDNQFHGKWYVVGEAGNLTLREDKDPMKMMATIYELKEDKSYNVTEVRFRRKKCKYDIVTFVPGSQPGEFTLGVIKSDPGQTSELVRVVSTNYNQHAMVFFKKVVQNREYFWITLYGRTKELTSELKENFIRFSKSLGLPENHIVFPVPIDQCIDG
T9 sequence (P80188 other isoform, or with tags, fused parts or gaps with the stated changes): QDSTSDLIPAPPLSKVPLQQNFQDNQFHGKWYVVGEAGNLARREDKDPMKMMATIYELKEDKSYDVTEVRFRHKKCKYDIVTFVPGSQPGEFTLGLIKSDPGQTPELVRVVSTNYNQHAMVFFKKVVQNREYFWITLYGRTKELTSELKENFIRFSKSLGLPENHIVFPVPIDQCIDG
Sequence of lipocalin negative control SEQ ID NO: 64 (P80188 21-198 Q48H/C107S): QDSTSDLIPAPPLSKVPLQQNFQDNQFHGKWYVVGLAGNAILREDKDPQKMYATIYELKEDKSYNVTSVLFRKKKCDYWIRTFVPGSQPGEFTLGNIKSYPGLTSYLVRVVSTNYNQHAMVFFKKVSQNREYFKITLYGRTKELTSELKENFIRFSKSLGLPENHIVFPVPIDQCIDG
T3 sequence (P80188 other isoform, or with tags, fused parts or gaps with the stated changes): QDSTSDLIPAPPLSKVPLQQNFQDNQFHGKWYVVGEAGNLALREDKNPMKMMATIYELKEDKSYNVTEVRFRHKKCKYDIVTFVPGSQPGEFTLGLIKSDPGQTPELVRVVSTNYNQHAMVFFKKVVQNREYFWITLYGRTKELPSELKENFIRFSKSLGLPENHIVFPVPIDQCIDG
T12 sequence (P80188 other isoform, or with tags, fused parts or gaps with the stated changes): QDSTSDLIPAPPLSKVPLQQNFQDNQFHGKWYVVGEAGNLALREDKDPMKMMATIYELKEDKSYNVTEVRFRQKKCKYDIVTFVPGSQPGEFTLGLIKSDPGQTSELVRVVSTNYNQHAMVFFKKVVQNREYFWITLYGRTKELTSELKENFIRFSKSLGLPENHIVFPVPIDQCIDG
T5 sequence (P80188 other isoform, or with tags, fused parts or gaps with the stated changes): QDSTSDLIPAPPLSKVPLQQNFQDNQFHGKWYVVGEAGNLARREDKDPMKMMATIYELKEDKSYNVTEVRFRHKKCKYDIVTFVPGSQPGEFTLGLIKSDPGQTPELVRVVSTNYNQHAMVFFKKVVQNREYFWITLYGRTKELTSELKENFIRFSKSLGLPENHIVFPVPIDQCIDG
T11 sequence (P80188 other isoform, or with tags, fused parts or gaps with the stated changes): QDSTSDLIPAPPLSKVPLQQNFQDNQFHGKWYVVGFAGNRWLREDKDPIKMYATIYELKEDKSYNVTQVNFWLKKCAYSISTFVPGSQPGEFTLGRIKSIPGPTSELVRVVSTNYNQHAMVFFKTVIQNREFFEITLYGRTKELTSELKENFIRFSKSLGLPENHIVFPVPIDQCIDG
Sequence of hNGAL (human lipocalin 2), wild type, SEQ ID NO: 1 (P80188 21-198): as the sequence (P80188 21-198 Q48H/C107S) above, with H28Q, S87C counted along it
T7 sequence (P80188 other isoform, or with tags, fused parts or gaps with the stated changes): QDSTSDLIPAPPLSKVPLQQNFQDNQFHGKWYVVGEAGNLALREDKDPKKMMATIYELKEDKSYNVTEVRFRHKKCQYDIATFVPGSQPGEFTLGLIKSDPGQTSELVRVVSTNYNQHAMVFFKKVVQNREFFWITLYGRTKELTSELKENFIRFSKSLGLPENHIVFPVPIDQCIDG
T13 sequence (P80188 21-198 with the stated changes): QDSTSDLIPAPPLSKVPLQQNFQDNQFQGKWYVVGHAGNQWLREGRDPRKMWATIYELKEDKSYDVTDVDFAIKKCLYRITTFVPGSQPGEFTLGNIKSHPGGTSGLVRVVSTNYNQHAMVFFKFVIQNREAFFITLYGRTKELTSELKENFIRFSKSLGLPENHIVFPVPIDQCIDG

| Molecule | binding [1] | IC50 [2] [nM] | Kd ([3]; Biacore, 25° C., Table 13) [nM] | IC50 [4] [nM] | IC50 [5] [nM] | IC50 [6] [nM] | IC50 [7] [nM] | IC50 [8] [nM] | IC50 [9] [nM] | IC50 [10] [nM] | IC50 [11] [nM] | IC50 [12] [nM] | IC50 [13] [nM] | other results |
| --- | --- | --- | --- | --- | --- | --- | --- | --- | --- | --- | --- | --- | --- | --- |
| O=C(N[C@H]1COC(=O)[C@@H](NC(=O)c2cccc(O)c2O)COC(=O)[C@@H](NC(=O)c2cccc(O)c2O)COC1=O)c1cccc(O)c1O.[Fe+3] [enterobactin] | high affinity |  |  |  |  |  |  |  |  |  |  |  |  |  |
| NC(=O)CCC(=O)Nc1cc2cc(O)c(O)cc2[n+]2c1NCC[C@H]2C(=O)N[C@H](CO)C1=NCC[C@@H](C(=O)N[C@@H](CCCN(O)C=O)C(=O)N[C@@H](CCC(N)=O)C(=O)N[C@H](CCC(N)=O)C(=O)N[C@H](CCCN(O)C=O)C(=O)NCC(=O)O)N1 [Pvd III sa (−Fe), Pvd type III succinamide] |  | 0.46 | 1.65 | 0.24 | 0.27 | 0.28 | 0.21 | 7.2 | 0.63 | 0.37 | 0.3 | 94 | 0.46 |  |
| CN1[C@@H]([C@H]2CSC(c3ccccc3O)=N2)SC[C@H]1C(=O)O [pyochelin] | does not bind |  |  |  |  |  |  |  |  |  |  |  |  | binding ([3]; His-tagged fusion captured via Ni-NTA): clearly detectable; binding ([14]; Biacore, Example 18): did not show binding |
| pyoverdine | does not bind |  |  |  |  |  |  |  |  |  |  |  |  | binding ([14]; Biacore, Example 18): did not show binding; binding [15]: absence of binding |
| NC(=O)CC[C@H](NC(=O)[C@H](CCCN([O-])C=O)NC(=O)[C@@H]1CCN=C([C@@H](CO)NC(=O)[C@@H]2CCNc3c(NC(=O)CCC(=O)O)cc4cc([O-])c([O-])cc4[n+]32)N1)C(=O)N[C@H](CCC(N)=O)C(=O)N[C@H](CCCN([O-])C=O)C(=O)NCC(=O)O.[Fe+3] [Pvd III s (+Fe), Pvd type III succinyl] |  |  |  |  |  |  |  |  |  |  |  |  |  | binding ([14]; SPR, analyte at 1200 nM): absence of binding |
| NC(=O)CC[C@H](NC(=O)[C@H](CCCN(O)C=O)NC(=O)[C@@H]1CCN=C([C@@H](CO)NC(=O)[C@@H]2CCNc3c(NC(=O)C(=O)CCC(=O)O)cc4cc(O)c(O)cc4[n+]32)N1)C(=O)N[C@H](CCC(N)=O)C(=O)N[C@H](CCCN(O)C=O)C(=O)NCC(=O)O [Pvd III aKG (−Fe), Pvd type III α-ketoglutaryl] |  | 1.7 | 18.7 | 0.64 | 0.7 | 0.58 | 1.1 | 69 | 0.33 | 0.82 | 1.2 | 23 | 1.9 |  |
| CC(=O)N(O)CCCCCNC(=O)CCC(=O)N(O)CCCCCNC(=O)CCC(=O)N(O)CCCCCN [Desferoxamin, desferoxamine] |  |  |  |  |  |  |  |  |  |  |  |  |  | KD ([3]; Biacore, 25° C., Table 13): no bdg; binding ([3]; high concentrations (≥1 μM)): absence of binding; binding [15]: absence of binding |
| NC(=O)CCC(=O)Nc1cc2cc([O-])c([O-])cc2[n+]2c1NCC[C@H]2C(=O)N[C@H](CO)C1=NCC[C@@H](C(=O)N[C@@H](CCCN([O-])C=O)C(=O)N[C@@H](CCC(N)=O)C(=O)N[C@H](CCC(N)=O)C(=O)N[C@H](CCCN([O-])C=O)C(=O)NCC(=O)O)N1.[Fe+3] [Pvd III sa (+Fe), Pvd type III succinamide] |  | 0.43 | 0.27 | 0.22 | 0.31 | 0.3 | 0.26 | 15 | 0.25 | 0.35 | 0.3 | 147 | 0.25 | Kd [16]: 0.58 nM; koff [16]: 3.9e-05 s⁻¹; kon [16]: 67300 M⁻¹ s⁻¹ |
| C[C@@H](O)[C@@H](NC(=O)CNC(=O)[C@H](CCCN)NC(=O)[C@@H](CCCN([O-])C=O)NC(=O)[C@@H](CO)NC(=O)[C@@H]1CCNc2c(NC(=O)CCC(=O)O)cc3cc([O-])c([O-])cc3[n+]21)C(=O)N[C@@H](CO)C(=O)N[C@H]1CCCN([O-])C1=O.[Fe+3] [Pvd II s (+Fe), Pvd type II succinyl] (Suc-[X1][dS][dOrn(N5-OH,N5-CHO)][Orn]G[d(aThr)]S-X2) |  |  |  |  |  |  |  |  |  |  |  |  |  | binding ([14]; SPR, analyte at 1200 nM): absence of binding |
| NC(=O)CC[C@H](NC(=O)[C@H](CCCN([O-])C=O)NC(=O)[C@@H]1CCN=C([C@@H](CO)NC(=O)[C@@H]2CCNc3c(NC(=O)C(=O)CCC(=O)O)cc4cc([O-])c([O-])cc4[n+]32)N1)C(=O)N[C@H](CCC(N)=O)C(=O)N[C@H](CCCN([O-])C=O)C(=O)NCC(=O)O.[Fe+3] [Pvd III aKG (+Fe), Pvd type III α-ketoglutaryl] |  | 1.5 | 1.04 | 0.95 | 0.58 | 0.82 | 0.93 | 78 | 0.54 | 0.95 | 1.02 | 23 | 1.4 | Kd [16]: 3.6 nM; koff [16]: 0.00014 s⁻¹; kon [16]: 38800 M⁻¹ s⁻¹ |
